Some test systems named below: Bacillus megaterium Bm11; Staphylococcus capitis 1; Acinetobacter baumannii; Aeromonas sobria; Arcyria cinerea; Candida glabrata 0902; Cryptococcus neoformans; Escherichia coli 1334; Escherichia coli 1335; Escherichia coli 1342; Escherichia coli 1375; Escherichia coli; Klebsiella pneumoniae; Proteus mirabilis; Proteus vulgaris; Serratia marcescens; Staphylococcus aureus.

Assay in all cases: ≥ marks a high value that may be exact or a test limit, other limits are often not marked, values filed in µg/mL are converted to µM
The subject of assay [1] is Candida albicans ATCC 10231.
The test system of assay [2] is Escherichia coli ATCC 25922.
The test system of assay [3] is Staphylococcus aureus Cowan 1.
The subject of assay [4] is Yersinia pseudotuberculosis YPIII.
In assay [5] the test system is Bacillus subtilis KCTC 1918.
The test system of assay [6] is Candida albicans ATCC 64550.
Assay [7] has as its system Candida albicans CCARM 14001.
Assay [8] has as its system Candida albicans CCARM 14007.
The subject of assay [9] is Escherichia coli CCARM 1229.
For assay [10], the system named is Escherichia coli CCARM 1238.
Assay [11] deals with Escherichia coli KCTC 1682.
Assay [12] has as its system Listeria monocytogenes KCTC 3710.
Assay [13] deals with Pseudomonas aeruginosa KCTC 1637.
The subject of assay [14] is Salmonella typhimurium CCARM 8007.
The subject of assay [15] is Salmonella typhimurium CCARM 8009.
Assay [16] relates to Salmonella typhimurium CCARM 8013.
Assay [17] concerns Salmonella typhimurium KCTC 1926.
In assay [18] the test system is Staphylococcus aureus CCARM 3089.
Assay [19] relates to Staphylococcus aureus CCARM 3090.
In assay [20] the test system is Staphylococcus aureus CCARM 3108.
Assay [21] concerns Staphylococcus aureus CCARM 3114.
Assay [22] deals with Staphylococcus aureus CCARM 3126.
Assay [23] relates to Staphylococcus aureus KCTC 1621.
In assay [24] the test system is Candida albicans ATCC 2002.
The subject of assay [25] is Cutibacterium acnes ATCC 11827.
In assay [26] the test system is Enterococcus faecalis 981.
For assay [27], the system named is Enterococcus faecium 1299.
For assay [28], the system named is Klebsiella pneumoniae 1400.
Assay [29] relates to Pseudomonas aeruginosa 1411.
The subject of assay [30] is Pseudomonas aeruginosa 1412.
Assay [31] has as its system Pseudomonas aeruginosa 1413.
The subject of assay [32] is Pseudomonas aeruginosa ATCC 27853.
Assay [33] deals with Salmonella enterica subsp. enterica serovar Typhi.
Assay [34] concerns Staphylococcus aureus 1303.
In assay [35] the test system is Staphylococcus aureus 1307.
Assay [36] deals with Staphylococcus aureus 1350.
In assay [37] the test system is Staphylococcus aureus ATCC 2592.
Assay [38] deals with Staphylococcus epidermidis.
The test system of assay [39] is Staphylococcus haemolyticus.
Assay [40] deals with Stenotrophomonas maltophilia.

Consider three compounds from DBAASP.

Converted amounts (≈) assume the structure as drawn. “And” between values parts separate entries of the source, which are not always exact repeats. Equal values may be shown once.

What is called MIC is the lowest concentration that inhibits growth of the organism. Consider `CC[C@H](C)[C@H](NC(=O)CNC(=O)[C@H](CO)NC(=O)[C@H](CC(C)C)NC(=O)[C@@H](NC(=O)[C@H](CCCN=C(N)N)NC(=O)CNC(=O)[C@@H](NC(=O)[C@H](CC(C)C)NC(=O)[C@@H]1CCCN1C(=O)[C@H](CC(C)C)NC(=O)[C@H](C)N)[C@@H](C)CC)C(C)C)C(=O)N[C@@H](CC(C)C)C(N)=O` [ALPLIGRVLSGIL], for which the minimum inhibitory concentration (MIC) against Bacillus megaterium Bm11 is 20 µM (≈ 26.4 µg/mL); in assay [1] it was > 40 µM; in assay [2], > 40 µM; in assay [3] it was ≥ 40 µM; against Staphylococcus capitis 1 it was ≥ 40 µM; in [4] it was ≥ 40 µM.
As for `NCCCC[C@H](NC(=O)[C@H](Cc1c[nH]c2ccccc12)NC(=O)[C@H](CCCCN)NC(=O)[C@H](Cc1c[nH]c2ccccc12)NC(=O)[C@H](CCCCN)NC(=O)[C@H](Cc1c[nH]c2ccccc12)NC(=O)[C@@H](N)CCCCN)C(=O)N[C@@H](Cc1c[nH]c2ccccc12)C(N)=O` [KWKWKWKW], the MIC in assay [5] is 6.25 µM and 12.5 µM; in assay [6], ≥ 50 µM; in assay [7], ≥ 32 µM; in assay [8], ≥ 32 µM; in assay [9] it was 6.25 µM and 12.5 µM; in assay [10], 12.5 µM (≈ 15.9 µg/mL). Moreover, the MIC in assay [11] is 6.25 µM and 12.5 µM; in [12], 3.12 µM (≈ 3.98 µg/mL); in [13], 3.12 µM (≈ 3.98 µg/mL); in assay [14] it was 12.5 µM (≈ 15.9 µg/mL); in [15], 6.25 µM and 12.5 µM; in assay [16], 6.25 µM and 12.5 µM. In addition, the MIC was 1.56 µM (≈ 1.99 µg/mL) in [17]; 12.5 µM (≈ 15.9 µg/mL) in assay [18]; 12.5 µM (≈ 15.9 µg/mL) in [19]; 12.5 µM (≈ 15.9 µg/mL) in [20]; 12.5 µM (≈ 15.9 µg/mL) in [21]; 12.5 µM (≈ 15.9 µg/mL) in assay [22]. For the same compound, in assay [23], the minimal inhibitory concentration (MIC) is 6.25 µM and 12.5 µM.
For the compound `CC[C@H](C)[C@H](NC(=O)[C@H](C)NC(=O)[C@H](CCCN=C(N)N)NC(=O)[C@H](Cc1ccc(O)cc1)NC(=O)[C@H](CC(C)C)NC(=O)[C@H](CC(N)=O)NC(=O)[C@H](Cc1ccc(O)cc1)NC(=O)CNC(=O)[C@H](C)NC(=O)[C@@H](NC(=O)[C@@H](NC(=O)[C@@H](NC(=O)[C@H](CCCN=C(N)N)NC(=O)[C@@H](NC(=O)[C@@H](NC(=O)[C@@H](NC(=O)[C@@H]1CCCN1C(=O)[C@H](Cc1c[nH]c2ccccc12)NC(=O)[C@H](Cc1ccccc1)NC(=O)[C@H](CCCN=C(N)N)NC(=O)[C@H](CCCCN)NC(=O)[C@@H](NC(=O)[C@@H](N)CCCN=C(N)N)[C@@H](C)CC)C(C)C)C(C)C)[C@@H](C)CC)[C@@H](C)O)C(C)C)C(C)C)C(=O)N[C@@H](CCCCN)C(=O)N[C@@H](CCCCN)C(=O)N[C@@H](CCCCN)C(=O)O` [RIKRFWPVVIRTVVAGYNLYRAIKKK], the minimal inhibitory concentration (MIC) against Acinetobacter baumannii was 1.48 µM and 1.05 µM; against Aeromonas sobria, 1.48 µM (≈ 4.7 µg/mL); in the assay on Arcyria cinerea, 0.37 µM and 0.74 µM; in assay [24], 0.18 µM and 0.37 µM; in the assay on Candida glabrata 0902, 5.9 µM (≈ 18.7 µg/mL); against Cryptococcus neoformans it was 23.6 µM (≈ 75 µg/mL). In addition, the minimal inhibitory concentration (MIC) in [25] is 0.74 µM (≈ 2.35 µg/mL); in assay [26], 2.95 µM and 1.48 µM; in assay [27] it was 1.48 µM (≈ 4.7 µg/mL); against Escherichia coli 1334 it was 2.95 µM (≈ 9.37 µg/mL); against Escherichia coli 1335, 1.48 µM (≈ 4.7 µg/mL); against Escherichia coli 1342, 0.74 µM and 1.48 µM. Besides, the MIC in the assay with Escherichia coli 1375 was 2.95 µM (≈ 9.37 µg/mL); in [2], 1.48 µM (≈ 4.7 µg/mL); against Escherichia coli it was 1.48 µM (≈ 4.7 µg/mL); in [28], 4.17 µM (≈ 13.2 µg/mL); in the assay on Klebsiella pneumoniae, 2.95 µM and 5.9 µM; in the assay on Proteus mirabilis, 1.48 µM (≈ 4.7 µg/mL). Moreover, the minimal inhibitory concentration (MIC) was 23.6 µM (≈ 75 µg/mL) in the assay with Proteus vulgaris; 1.48 µM and 2.95 µM in [29]; 2.95 µM and 5.9 µM in assay [30]; 2.95 µM (≈ 9.37 µg/mL) in [31]; 5.9 µM and > 2.95 µM in [32]; 5.9 µM (≈ 18.7 µg/mL) in [33]. Further, the minimum inhibitory concentration (MIC) is 31.5 µM and 23.6 µM in the assay with Serratia marcescens; 2.95 µM and 1.48 µM in assay [34]; 2.95 µM (≈ 9.37 µg/mL) in assay [35]; 1.48 µM (≈ 4.7 µg/mL) in assay [36]; 0.18 µM (≈ 0.572 µg/mL) in [37]; 0.74 µM and > 0.37 µM in the assay with Staphylococcus aureus. The MIC in assay [38] amounted to 2.95 µM (≈ 9.37 µg/mL); in assay [39], 0.09 µM (≈ 0.286 µg/mL); in assay [40] it was 2.95 µM (≈ 9.37 µg/mL).
